Counter-ions that a name gives are not always drawn.
How the values were obtained:
Type in all cases: in vivo
Balb/c nu/nu male mice = experiment: Hair growth in nude mice, daily oral or topical drug (Example 3); conditions: six week old mice
From the text: (§1) The present invention is illustrated by the Examples, below. Examples 1-3 illustrate the effect of minoxidil sulfate (a compound of the present invention) and minoxidil (the corresponding N-oxide) in genetically identical hair-deficient mice called "nude" (nu/nu) (see Flanagen, Genet. Res. 8:295-309 (1966)). […] All mice in the species mus grow hair in a definite, 20 day cycle, going from head to tail (see Barom, Acta Path. Micro. Scan. 34: 521-541 (1954)). "Nude" mice have the same pattern (see Eton, Transplantation 22: 217-222 (1976)). Hair fails to appear in the nude mouce since it never emerges due to the fact that the hair shaft is incompletely formed, poorly keratinized, or both. The nacent hair shafts fragment within the follicle and thus never emerge or break near the skin surface. The hair produced in the nude mice treated with the compounds described below is more normal and mechanically competent to emerge and persit. Eventually, however, even the hair produced in the drug treated animals falls out due to the genetic defect of these animals. Nonetheless, significant differences in hair growth can be observed in the drug treated animals as compared to the control animals during the twenty day cycle.
(§2) In the Examples, five photographs were taken of the animals every six days over a four week period.
Six week old Balb/c nu/nu male mice were given daily oral drug (without resting on weekends) in 0.25 ml water. Topical minoxidil sulfate was applied in 0.25 ml of a propylene glycol, ethanol, and watervehicle.

stumptail Macque monkeys = experiment: Hair growth rate on the scalp of balding monkeys, topical solution (Example 4); conditions: for Mean wt. (clipped hair, 2.54 cm square area of treated scalp): topical daily, 250 microliters of 750 mg in 50 ml acetone:N-methylpyrrolidone 94:6
Description: Topical minoxidil sulfate solution was applied to a group of 6 stumptail Macque monkeys daily, 7 days/ week. The topical minoxidil sulfate solution was prepared by dissolving 750 mg of minoxidil sulfate in 50 ml of a 94:6 volume:volume solution of acetone: N-methylpyrrolidone. A second group of 6 animals served as controls and received vehicle only. the volume per application was 250 microliters applied to the frontal scalp with an art brush. Hair growth rate within a 2.54 cm (1 inch) square area of treated scalp was assessed by quantitatively clipping the hair at successive intervals of 42 days, 21 days and 21 days and weighing the residue.

[1] = system: hair-deficient mice called "nude" (nu/nu); experiment: Hair growth in nude mice, oral drug daily without resting on weekends (Example 2); conditions: for Score of Photos 1+ (Number of animals with at least 1 of 5 photos showing positive hair growth) / Score of Photos 2+ (Number of animals with at least 2 of 5 photos showing positive hair growth): Example 2, daily, eleven week old mice; for inducing hair growth, compared with minoxidil: summary of Table I in words
From the text: as §1, §2
Eleven week old mice from the same group fo animals as used in Example 1 were treated by oral administration of 0.25 ml of either minoxidil or minoxidil sulfate in water daily without resting on weekends. Weights were assumed to be an average of 25 g per animal for dosing purposes.

[2] = 20 mg/kg topical in propylene glycol, ethanol and water vehicle
[3] = 40 mg/kg topical in propylene glycol, ethanol and water vehicle

For Nc1cc(N2CCCCC2)nc(N)[n+]1OS(=O)(=O)[O-] [Minoxidil Sulfate, 2,6-Diamino-4-(1-piperidinyl)-1-(sulfoxy)-pyrimidinium hydroxide, inner salt], the “Score of Photos 1+ (Number of animals with at least 1 of 5 photos showing positive hair growth)” value (Balb/c nu/nu male mice; 5 mg/kg oral, daily) was 2/5, the “Score of Photos 2+ (Number of animals with at least 2 of 5 photos showing positive hair growth)” value (Balb/c nu/nu male mice; 5 mg/kg oral, daily) was 1/5 and the “Score of Photos 1+ (Number of animals with at least 1 of 5 photos showing positive hair growth)” value (Balb/c nu/nu male mice; 10 mg/kg oral, daily) was 1/5. For the same molecule, the “Score of Photos 2+ (Number of animals with at least 2 of 5 photos showing positive hair growth)” value (Balb/c nu/nu male mice; 10 mg/kg oral, daily) was 1/5, the “Score of Photos 1+ (Number of animals with at least 1 of 5 photos showing positive hair growth)” value (Balb/c nu/nu male mice; 20 mg/kg oral, daily) was 2/5 and the “Score of Photos 2+ (Number of animals with at least 2 of 5 photos showing positive hair growth)” value (Balb/c nu/nu male mice; 20 mg/kg oral, daily) was 1/5. For the same molecule, the “Score of Photos 1+ (Number of animals with at least 1 of 5 photos showing positive hair growth)” value (Balb/c nu/nu male mice; [2]) was 2/5, the “Score of Photos 2+ (Number of animals with at least 2 of 5 photos showing positive hair growth)” value (Balb/c nu/nu male mice; [2]) was 0/5 and the “Score of Photos 1+ (Number of animals with at least 1 of 5 photos showing positive hair growth)” value (Balb/c nu/nu male mice; 40 mg/kg oral, daily) was 3/5. The “Score of Photos 2+ (Number of animals with at least 2 of 5 photos showing positive hair growth)” value (Balb/c nu/nu male mice; 40 mg/kg oral, daily) was 0/5, the “Score of Photos 1+ (Number of animals with at least 1 of 5 photos showing positive hair growth)” value (Balb/c nu/nu male mice; [3]) was 2/5 and the “Score of Photos 2+ (Number of animals with at least 2 of 5 photos showing positive hair growth)” value (Balb/c nu/nu male mice; [3]) was 1/5. For the same molecule, the “Mean wt. (clipped hair, 2.54 cm square area of treated scalp)” value (stumptail Macque monkeys; Collection 1 (interval of 42 days)) was 76 ±20 uG/day, the “Mean wt. (clipped hair, 2.54 cm square area of treated scalp)” value (stumptail Macque monkeys; Collection 2 (next interval of 21 days)) was 313 ±67 uG/day and the “Mean wt. (clipped hair, 2.54 cm square area of treated scalp)” value (stumptail Macque monkeys; Collection 3 (last interval of 21 days)) was 343 ±52 uG/day. The “hair growth following topical application to the scalp” value (stumptail Macque monkeys; balding monkeys, summary of Table II in words) was “stimulates hair growth”, the “increase in hair growth versus vehicle” value (stumptail Macque monkeys; by the third collection, summary of Table II in words) was “statistically significant increase in hair growth” and the “Score of Photos 1+ (Number of animals with at least 1 of 5 photos showing positive hair growth)” value ([1]; 20 mg/kg oral) was 4/5. For the same molecule, the “Score of Photos 2+ (Number of animals with at least 2 of 5 photos showing positive hair growth)” value ([1]; 20 mg/kg oral) was 3/5, the “Score of Photos 1+ (Number of animals with at least 1 of 5 photos showing positive hair growth)” value ([1]; 40 mg/kg oral) was 3/5 and the “Score of Photos 2+ (Number of animals with at least 2 of 5 photos showing positive hair growth)” value ([1]; 40 mg/kg oral) was 1/5. The “inducing hair growth, compared with minoxidil” value ([1]; at 20 mg/kg) was “significantly better than minoxidil” and the “inducing hair growth, compared with minoxidil” value ([1]; at 40 mg/kg) was “equipotent to or better than minoxidil”.

Reference: patent EP0210227B1, “PYRIMIDINE SULFATES FOR HAIR GROWTH” (THE UPJOHN COMPANY, priority 1985, dated 1986)
